# Counter-ions that a name gives are not always drawn. Like-named read-outs stand apart in the source and are kept apart here.
# System: mice
# Assay: Neuropharmacological Assay (SmartCube): automated behavioral signature of compound-treated mice compared with a database of reference drug classes
# Format: in vivo
# Settings: for minimal effective dose: Mus musculus, ip
# Outline: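 i.p. dosing 15 min pre-test (NMP/PEG/propylene glycol vehicle); 3 doses, 3.0 mg/kg reported. Output = class-match probability per behavioural effect. Potency runs 0.3, 1, 3, 10 mpk (range adjusted as needed); MED = dose with ≥45% total activity.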
# [1] = minimal effective dose: dose having 45% or more total activity in SmartCube, i.p., if only one dose tested, that dose is shown, read-out: MED
# [2] = SmartCube class probability, 3.0 mg/kg i.p., 15 min before test
# [3] = SmartCube class probability, 3.0 mg/kg i.p., 15 min before test, hydrochloride, 3 mg/kg
# [4] = dose having 45% or more total activity in SmartCube, i.p., if only one dose was tested, that dose is shown, read-out: MED (minimal effective dose)
# [5] = probability that activity matches this class of agents, 3.0 mg/kg i.p., 15 min before test
# [6] = probability that activity matches this class of agents, 3.0 mg/kg i.p., 15 min before test, hydrochloride, 3 mg/kg
# [7] = dose having 45% or more total activity in SmartCube, i.p., if only one dose was tested, that dose is shown, hydrochloride
# [8] = minimal effective dose: dose having 45% or more total activity in SmartCube, i.p., if only one dose was tested, that dose is shown, read-out: MED
# [9] = SmartCube probability class, 3.0 mg/kg dose, i.p. 15 min before the behavioral test
# [10] = probability that activity matches this class of agents, 3.0 mg/kg i.p., 15 min before test, 3 mg/kg
Compound,minimal effective dose [1] [mg/kg],AD [2],AG [2],AN [2],AP [2],AX [2],CE [2],HL [2],MS [2],PS [2],SH [2],AG [5],AN [5],CE [5],HL [5],PS [5],SH [5],UK [2],other results
"CNC1CCc2scc(-c3ccccc3)c2C1 (single isomer, unassigned) [Compound 232, N-methyl-3-phenyl-4,5,6,7-tetrahydrobenzothiophen-5-amine hydrochloride]",> 3,ND (^ <4%),ND (^ <4%),ND (^ <4%),ND (^ <4%),ND (^ <4%),ND (^ <4%),ND (^ <4%),ND (^ <4%),ND (^ <4%),ND (^ <4%),,,,,,,,UK [3]: + (≥4%)
"CNC1CCc2c(csc2Cl)C1 (single isomer, unassigned) [Compound 57, 1-chloro-N-methyl-4,5,6,7-tetrahydro-2-benzothiophen-5-amine hydrochloride]",,,,,,,,,,,,ND (^ <4%),ND (^ <4%),ND (^ <4%),ND (^ <4%),ND (^ <4%),ND (^ <4%),,minimal effective dose [4]: 1 mg/kg; AX [5]: ND (^ <4%); AD [6]: ++ (≥24%); AP [6]: ++ (≥24%); MS [6]: ND (^ <4%); UK [6]: + (≥4%)
"CNC1CCc2c(C(F)(F)F)csc2C1 (stereo not drawn) [Compound 180, N-methyl-3-(trifluoromethyl)-4,5,6,7-tetrahydrobenzothiophen-6-amine hydrochloride]",3,ND (^ <4%),ND (^ <4%),ND (^ <4%),+++ (≥49%),ND (^ <4%),ND (^ <4%),ND (^ <4%),ND (^ <4%),ND (^ <4%),ND (^ <4%),,,,,,,ND (^ <4%),
"CNC1COc2c(sc(C)c2C)C1 (stereo not drawn) [Compound 202, N, 2,3-trimethyl-6,7-dihydro-5H-thieno[3,2-b]pyran-6-amine hydrochloride]",3,+ (≥4%),ND (^ <4%),ND (^ <4%),++ (≥24%),++ (≥24%),ND (^ <4%),ND (^ <4%),ND (^ <4%),ND (^ <4%),ND (^ <4%),,,,,,,ND (^ <4%),
"CNC1COc2c(Cl)csc2C1 (stereo not drawn) [Compound 222, 3-chloro-N-methyl-6,7-dihydro-5H-thieno[3,2-b]pyran-6-amine hydrochloride]",< 3,ND (^ <4%),ND (^ <4%),ND (^ <4%),++++ (≥74%),ND (^ <4%),ND (^ <4%),ND (^ <4%),ND (^ <4%),ND (^ <4%),ND (^ <4%),,,,,,,ND (^ <4%),
"CNC1COc2csc(C(F)(F)F)c2C1 (stereo not drawn) [Compound 153, N-methyl-5-(trifluoromethyl)-3,4-dihydro-2H-thieno[3,4-b]pyran-3-amine hydrochloride]",3,++++ (≥74%),ND (^ <4%),ND (^ <4%),ND (^ <4%),ND (^ <4%),ND (^ <4%),ND (^ <4%),ND (^ <4%),ND (^ <4%),ND (^ <4%),,,,,,,ND (^ <4%),
"CNC1COc2ccsc2C1 (single isomer, unassigned) [Compound 47, N-methyl-6,7-dihydro-5H-thieno[3,2-b]pyran-6-amine hydrochloride]",,,,,,,,,,,,ND (^ <4%),ND (^ <4%),ND (^ <4%),ND (^ <4%),ND (^ <4%),ND (^ <4%),,MED (minimal effective dose) [7]: 0.3 mpk; AP [5]: ND (^ <4%); MS [5]: ND (^ <4%); AD [6]: ++++ (≥74%); AX [6]: ND (^ <4%); UK [6]: ND (^ <4%)
"NC1CCCc2ccsc2C1 (stereo not drawn) [Compound 323, 5,6,7,8-tetrahydro-4H-cyclohepta[b]thiophen-7-amine hydrochloride]",,,,,,,,,,,,,,,,,,,minimal effective dose [8]: 3 mg/kg; AD [9]: ++ (≥24%); AG [9]: ND (^ <4%); AN [9]: ND (^ <4%); AP [9]: ++ (≥24%); AX [9]: + (≥4%); CE [9]: ND (^ <4%); HL [9]: ND (^ <4%); MS [9]: ND (^ <4%); PS [9]: ND (^ <4%); SH [9]: ND (^ <4%); UK [9]: + (≥4%)
"CNC1CCc2sc(F)cc2C1 (single isomer, unassigned; enantiomer 1) [Compound 98, 2-fluoro-N-methyl-4,5,6,7-tetrahydrobenzothiophen-5-amine hydrochloride enantiomer 1]",,,,,,,,,,,,ND (^ <4%),ND (^ <4%),ND (^ <4%),ND (^ <4%),ND (^ <4%),ND (^ <4%),,minimal effective dose [4]: 3 mg/kg; AD [5]: ND (^ <4%); MS [5]: ND (^ <4%); AP [10]: ++ (≥24%); AX [10]: + (≥4%); UK [10]: ++ (≥24%)
"NC1CCc2scc(F)c2C1 (single isomer, unassigned) [Compound 191, 3-fluoro-4,5,6,7-tetrahydrobenzothiophen-5-amine hydrochloride]",,,,,,ND (^ <4%),,ND (^ <4%),ND (^ <4%),,ND (^ <4%),,,,,,,,"AD [3]: ++ (≥24%); AG [3]: + (≥4%); AN [3]: + (≥4%); AP [3]: + (≥4%); CE [3]: + (≥4%); PS [3]: + (≥4%); UK [3]: ND (^ <4%); MED (minimal effective dose: dose having 45% or more total activity in SmartCube, i.p., if only one dose tested, that dose is shown, hydrochloride): 1 mpk"
"Cl.c1cc2c(s1)CC(N1CCCC1)CC2 (single isomer, unassigned) [Compound 17, 1-(4,5,6,7-tetrahydrobenzothiophen-6-yl)pyrrolidine hydrochloride]",,,,,,,,,,,,ND (^ <4%),ND (^ <4%),ND (^ <4%),ND (^ <4%),ND (^ <4%),ND (^ <4%),,MED (minimal effective dose) [7]: 1.0 mpk; MS [5]: ND (^ <4%); UK [5]: ND (^ <4%); AD [6]: ND (^ <4%); AP [6]: +++ (≥49%); AX [6]: ++++ (≥74%)
"CNC1COc2scc(C#N)c2C1 (stereo not drawn) [Compound 322, 3-(methylamino)-3,4-dihydro-2H-thieno[2,3-b]pyran-5-carbonitrile hydrochloride]",,,,,,,,,,,,,,,,,,,minimal effective dose [8]: 3 mg/kg; AD [9]: ND (^ <4%); AG [9]: ND (^ <4%); AN [9]: ND (^ <4%); AP [9]: +++ (≥49%); AX [9]: ND (^ <4%); CE [9]: ND (^ <4%); HL [9]: ND (^ <4%); MS [9]: ND (^ <4%); PS [9]: ND (^ <4%); SH [9]: ND (^ <4%); UK [9]: ++ (≥24%)
